Measured values reported in US9687550B2, “Compositions for nucleic acid delivery” (Arbutus Biopharma Corporation, priority 2009, dated 2017).

Assay: pKa of lipid
Assay type: physicochemical

## CCCCCCCCCCCCCCCCCCC(CCCCCCCCCCCCCCCCCC)OC(=O)CCCN(C)C [compound 111]
  pKa: > 7.4
